The source of these data is the Kinase Knowledgebase extract (Sharma et al. 2016).

Experiment [1] concerns the target PIK3CD (Human) (UniProt O00329). Kind of experiment: Inhibition of PIK3CD Kinase Activity.
For experiment [2] the target is unchanged. Kind of experiment: Enzyme Assay.
Experiment [3] concerns the target PIK3CG (human) (UniProt P48736). The experiment is described as follows: Assessment of PIK3CG Kinase Activity.
The target of experiment [4] is PIK3CA (human) (UniProt P42336). Kind of experiment: Enzyme Assay.
The target in experiment [5] is PIK3CD (Human) (UniProt O00329). The experiment is described as follows: Assessment of PIK3CD Kinase Activity.
Experiment [6] has as its target ROCK2 (human) (UniProt O75116). Kind of experiment: Enzyme Assay. The settings on record: for activity: concentration not given here.
Experiment [7] addresses PIK3CA (human) (UniProt P42336). Kind of experiment: Assessment of PIK3CA Kinase Activity.
Experiment [8] concerns the target MAPK14 (human) (UniProt Q16539). The experiment is described as follows: Enzyme Assay. The settings on record: concentration not given here.

The term IC50 denotes the concentration that gives 50% inhibition. A high value points to a need for much substance. In general, Ki refers to a dissociation constant, usually derived from enzyme kinetics or from competition with a known ligand. What is called Kd is the equilibrium constant for the complex coming apart. Lower therefore signals tighter binding.

Structures are written as SMILES.

Sequence of PIK3CD (Human) (O00329 whole entry, looked up): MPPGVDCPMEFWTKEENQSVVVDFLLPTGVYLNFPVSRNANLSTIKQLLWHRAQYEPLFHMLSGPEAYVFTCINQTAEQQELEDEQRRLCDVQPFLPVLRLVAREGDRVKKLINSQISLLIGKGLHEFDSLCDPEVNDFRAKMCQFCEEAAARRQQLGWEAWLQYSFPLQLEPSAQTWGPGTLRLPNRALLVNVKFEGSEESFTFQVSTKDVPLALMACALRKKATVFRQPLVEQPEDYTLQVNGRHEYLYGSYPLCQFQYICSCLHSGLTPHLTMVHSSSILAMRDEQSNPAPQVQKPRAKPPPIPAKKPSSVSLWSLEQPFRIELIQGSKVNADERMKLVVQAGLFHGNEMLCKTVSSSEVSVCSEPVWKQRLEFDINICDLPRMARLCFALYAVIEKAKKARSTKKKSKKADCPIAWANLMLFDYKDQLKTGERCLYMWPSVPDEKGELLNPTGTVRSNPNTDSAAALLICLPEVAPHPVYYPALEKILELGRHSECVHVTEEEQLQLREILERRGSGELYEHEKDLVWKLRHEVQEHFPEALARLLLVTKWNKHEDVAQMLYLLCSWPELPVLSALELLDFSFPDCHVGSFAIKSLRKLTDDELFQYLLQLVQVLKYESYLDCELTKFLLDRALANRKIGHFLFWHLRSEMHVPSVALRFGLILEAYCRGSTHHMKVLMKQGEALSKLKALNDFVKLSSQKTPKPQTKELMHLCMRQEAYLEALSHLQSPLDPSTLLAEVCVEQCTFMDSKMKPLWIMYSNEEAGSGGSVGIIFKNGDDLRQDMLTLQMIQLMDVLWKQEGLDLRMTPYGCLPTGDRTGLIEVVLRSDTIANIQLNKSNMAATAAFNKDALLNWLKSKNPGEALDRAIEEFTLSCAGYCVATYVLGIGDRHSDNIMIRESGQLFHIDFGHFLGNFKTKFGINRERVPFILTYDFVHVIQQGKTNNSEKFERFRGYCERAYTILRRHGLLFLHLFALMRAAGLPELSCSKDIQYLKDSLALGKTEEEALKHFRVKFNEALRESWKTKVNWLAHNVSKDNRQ
Sequence of PIK3CA (human) (P42336 whole entry, looked up): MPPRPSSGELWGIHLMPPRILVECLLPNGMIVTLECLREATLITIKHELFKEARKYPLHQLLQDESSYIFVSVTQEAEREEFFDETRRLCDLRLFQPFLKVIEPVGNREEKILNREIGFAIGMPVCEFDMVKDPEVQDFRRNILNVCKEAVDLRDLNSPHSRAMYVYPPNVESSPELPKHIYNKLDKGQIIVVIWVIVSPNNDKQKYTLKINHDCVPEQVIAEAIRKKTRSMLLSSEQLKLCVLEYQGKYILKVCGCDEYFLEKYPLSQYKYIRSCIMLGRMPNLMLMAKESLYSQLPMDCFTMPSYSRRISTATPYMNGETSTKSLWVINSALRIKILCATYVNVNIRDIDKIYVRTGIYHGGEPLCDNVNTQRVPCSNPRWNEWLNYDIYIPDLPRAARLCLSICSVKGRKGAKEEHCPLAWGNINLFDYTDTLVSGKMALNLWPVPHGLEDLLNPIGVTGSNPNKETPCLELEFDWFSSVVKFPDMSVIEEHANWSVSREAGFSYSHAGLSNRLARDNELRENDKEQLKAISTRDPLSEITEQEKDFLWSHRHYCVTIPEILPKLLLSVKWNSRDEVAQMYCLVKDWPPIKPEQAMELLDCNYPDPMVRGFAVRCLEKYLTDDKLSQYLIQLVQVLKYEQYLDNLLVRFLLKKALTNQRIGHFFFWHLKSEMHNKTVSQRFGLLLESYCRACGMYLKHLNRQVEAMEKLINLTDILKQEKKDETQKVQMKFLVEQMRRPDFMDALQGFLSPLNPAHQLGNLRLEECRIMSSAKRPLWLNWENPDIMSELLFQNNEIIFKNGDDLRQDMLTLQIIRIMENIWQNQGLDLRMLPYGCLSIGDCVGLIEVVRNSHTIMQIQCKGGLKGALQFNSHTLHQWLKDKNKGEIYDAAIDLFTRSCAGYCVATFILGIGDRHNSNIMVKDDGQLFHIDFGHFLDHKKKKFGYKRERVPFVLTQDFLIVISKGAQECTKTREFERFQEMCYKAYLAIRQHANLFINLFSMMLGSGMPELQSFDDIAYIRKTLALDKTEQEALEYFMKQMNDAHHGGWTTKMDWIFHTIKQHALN
Sequence of ROCK2 (human) (O75116 whole entry, looked up): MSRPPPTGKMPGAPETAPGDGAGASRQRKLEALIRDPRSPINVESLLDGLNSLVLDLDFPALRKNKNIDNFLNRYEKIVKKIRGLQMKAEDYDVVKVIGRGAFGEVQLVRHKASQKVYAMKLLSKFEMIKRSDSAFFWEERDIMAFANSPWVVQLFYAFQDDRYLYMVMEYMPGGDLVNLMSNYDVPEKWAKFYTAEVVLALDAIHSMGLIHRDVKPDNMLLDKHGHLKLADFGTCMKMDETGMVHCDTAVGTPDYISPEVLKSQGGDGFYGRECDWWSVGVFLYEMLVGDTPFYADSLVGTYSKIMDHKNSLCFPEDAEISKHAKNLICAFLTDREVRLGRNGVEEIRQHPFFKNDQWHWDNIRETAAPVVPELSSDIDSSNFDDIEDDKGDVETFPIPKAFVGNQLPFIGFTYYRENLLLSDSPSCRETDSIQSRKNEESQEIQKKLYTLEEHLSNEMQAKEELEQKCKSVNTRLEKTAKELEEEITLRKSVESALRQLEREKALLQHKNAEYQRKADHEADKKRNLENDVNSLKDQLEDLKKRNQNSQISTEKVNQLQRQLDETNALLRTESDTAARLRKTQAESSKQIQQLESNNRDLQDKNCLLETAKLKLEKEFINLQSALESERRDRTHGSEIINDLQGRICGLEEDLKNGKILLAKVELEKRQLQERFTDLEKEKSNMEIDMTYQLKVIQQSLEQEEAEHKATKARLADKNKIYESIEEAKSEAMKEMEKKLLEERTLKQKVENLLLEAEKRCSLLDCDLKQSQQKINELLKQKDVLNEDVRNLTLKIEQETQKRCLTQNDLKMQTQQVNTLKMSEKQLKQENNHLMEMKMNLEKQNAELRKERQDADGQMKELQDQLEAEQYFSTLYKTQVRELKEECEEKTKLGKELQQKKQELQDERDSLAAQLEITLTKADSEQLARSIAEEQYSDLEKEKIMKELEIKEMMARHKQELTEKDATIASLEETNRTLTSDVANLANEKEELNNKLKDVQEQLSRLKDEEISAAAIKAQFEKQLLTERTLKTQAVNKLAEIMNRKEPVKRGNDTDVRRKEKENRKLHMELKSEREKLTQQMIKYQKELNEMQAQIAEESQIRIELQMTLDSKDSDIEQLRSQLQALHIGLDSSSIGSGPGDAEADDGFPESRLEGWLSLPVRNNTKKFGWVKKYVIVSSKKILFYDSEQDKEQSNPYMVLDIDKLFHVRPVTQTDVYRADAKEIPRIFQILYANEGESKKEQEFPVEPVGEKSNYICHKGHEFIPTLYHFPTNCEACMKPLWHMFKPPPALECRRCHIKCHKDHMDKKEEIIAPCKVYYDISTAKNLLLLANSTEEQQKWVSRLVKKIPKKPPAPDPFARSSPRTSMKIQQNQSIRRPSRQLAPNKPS
Sequence of PIK3CG (human) (P48736 whole entry, looked up): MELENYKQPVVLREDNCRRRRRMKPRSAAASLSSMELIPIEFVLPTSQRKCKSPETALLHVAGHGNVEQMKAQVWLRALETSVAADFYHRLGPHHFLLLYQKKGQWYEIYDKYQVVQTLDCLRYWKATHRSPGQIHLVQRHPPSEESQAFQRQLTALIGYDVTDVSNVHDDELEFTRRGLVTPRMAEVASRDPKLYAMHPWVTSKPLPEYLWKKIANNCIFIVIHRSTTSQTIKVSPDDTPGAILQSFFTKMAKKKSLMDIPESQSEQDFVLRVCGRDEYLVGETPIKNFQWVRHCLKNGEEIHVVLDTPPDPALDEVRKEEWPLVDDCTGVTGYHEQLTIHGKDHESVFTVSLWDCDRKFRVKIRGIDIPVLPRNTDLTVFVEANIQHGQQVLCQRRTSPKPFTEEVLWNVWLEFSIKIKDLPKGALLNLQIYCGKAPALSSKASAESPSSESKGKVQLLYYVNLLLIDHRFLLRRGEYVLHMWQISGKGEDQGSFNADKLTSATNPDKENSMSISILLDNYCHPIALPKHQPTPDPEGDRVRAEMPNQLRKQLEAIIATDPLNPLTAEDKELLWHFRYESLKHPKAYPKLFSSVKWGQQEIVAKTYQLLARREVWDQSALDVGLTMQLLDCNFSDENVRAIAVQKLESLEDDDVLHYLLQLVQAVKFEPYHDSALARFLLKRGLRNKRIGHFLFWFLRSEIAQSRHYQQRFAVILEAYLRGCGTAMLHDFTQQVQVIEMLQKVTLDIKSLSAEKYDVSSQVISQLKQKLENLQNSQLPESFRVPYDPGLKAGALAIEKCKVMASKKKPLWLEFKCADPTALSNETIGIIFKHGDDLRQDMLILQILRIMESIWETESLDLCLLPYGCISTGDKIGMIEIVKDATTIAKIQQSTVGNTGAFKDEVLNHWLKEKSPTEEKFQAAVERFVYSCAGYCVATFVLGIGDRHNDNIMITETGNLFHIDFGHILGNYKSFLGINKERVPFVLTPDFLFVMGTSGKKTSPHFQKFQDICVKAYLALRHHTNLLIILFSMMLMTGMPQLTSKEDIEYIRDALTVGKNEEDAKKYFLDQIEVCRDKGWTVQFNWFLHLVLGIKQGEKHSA
Sequence of MAPK14 (human) (Q16539 whole entry, looked up): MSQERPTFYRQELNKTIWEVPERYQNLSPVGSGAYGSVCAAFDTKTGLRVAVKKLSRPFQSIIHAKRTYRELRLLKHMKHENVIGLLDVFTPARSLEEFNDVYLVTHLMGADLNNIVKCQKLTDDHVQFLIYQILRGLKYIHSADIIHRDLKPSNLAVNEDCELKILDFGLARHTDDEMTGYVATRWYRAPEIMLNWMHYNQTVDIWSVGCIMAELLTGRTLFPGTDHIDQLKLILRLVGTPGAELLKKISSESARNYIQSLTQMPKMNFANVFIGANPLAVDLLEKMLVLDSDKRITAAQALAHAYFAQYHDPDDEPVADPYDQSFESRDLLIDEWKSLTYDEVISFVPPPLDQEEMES

With `O=c1cc(N2CCOCC2)oc2c(-c3ccccc3)cccc12`, the 50% inhibitory concentration (IC50) in experiment [1] was determined as 1020 nM; in experiment [2], 268 nM.

As to `CNS(=O)(=O)c1cncc(-c2ccc3nc(NC(C)=O)nn3c2)c1`, the IC50 in experiment [3] came to 7.94 nM.

Turning to `Cc1nc(Nc2cc(C(=O)O)n(CCc3ccccc3)c2)nc2c1cc(F)c(=O)n2C1CCCC1`, the concentration for half-maximal inhibition (IC50) in experiment [3] was 15 nM.

Consider `COc1ncc(N2CCc3ncnc(N[C@H]4CCN(C(=O)[C@H]5CC[C@H](O)CC5)C4)c3C2)cc1C(F)(F)F`, for which the IC50 in experiment [2] was found to be 7 nM; in experiment [4], 106 nM.

Turning to `COc1ccc(C2=NNC(=O)C2=NNc2cccnc2)cc1`, the inhibition constant (Ki) in experiment [3] was found to be 1000 nM.

As for `Cc1c(-c2ccccc2[S+](C)[O-])nc2cc(F)cc(F)c2c1Nc1cncc(N2CCOCC2)c1` (configuration not stated), in experiment [5], the Ki is 3.89 nM.

In the case of `CS(=O)(=O)N1CCN(Cc2csc3c(-c4cnc(N)nc4)nc(N4CCOCC4)nc23)CC1`, the values for the IC50 in experiment [2] and in experiment [4] were 18 nM and 9.5 nM, respectively.

`COC(=O)Nc1nc2ccc(C(=O)c3cccs3)cc2[nH]1` yielded a Kd in experiment [3] of 1500 nM.

With `O=S(=O)(NCCNC/C=C/c1ccc(Br)cc1)c1cccc2cnccc12`, the activity in experiment [6] was determined as 0%.

On to `COc1cccc(CN(C)C(=O)Nc2ccc(-c3cn[nH]c3)cc2OCCN2CCCC2)c1`, for which the IC50 in experiment [6] was below 1 nM.

Regarding `Cc1nc(Nc2cc(C(=O)O)n(C)c2)nc2c1ccc(=O)n2C1CCCC(C)C1` (configuration not stated), in experiment [3], the IC50 is 180 nM.

On to `CCNC(=O)Nc1ccc(-c2nc(N3CCOC[C@@H]3CC)c3c(ncn3C)n2)cc1`, for which the Ki in experiment [2] and in experiment [4] was above 10000 nM in each case.

`COc1ccc(C2=NNC(=O)C2=NNc2ccccc2)cn1`: the Ki in experiment [3] turned out to be 540 nM.

As for `Cc1ncc2c(Cl)cc(C(C)Nc3ncnc4[nH]cnc34)c(-c3cccc(F)c3)n12` (configuration not stated), in experiment [5], the IC50 is at most 50 nM.

For the compound `C[C@H](Nc1ncnc2[nH]cnc12)c1cc2ccc(F)cc2nc1-c1cccnc1`, the half-maximal inhibitory concentration (IC50) in experiment [1] was determined as 23 nM.

Compound `O=C1NC(=S)S/C1=C\c1ccc2c(c1)OCO2` displayed a concentration for half-maximal inhibition (IC50) in experiment [1] of 20000 nM.

In experiment [6], `CNC(=O)C[C@@H](NC(=O)c1ccc(-c2cn[nH]c2)c(C)c1)c1ccccc1` came in with an IC50 of 21.7 nM.

As for `CCc1cccn2c(-c3cccc(F)c3)c(C(C)Nc3ncnc4[nH]cnc34)nc12` (configuration not stated), in experiment [5], the half-inhibitory concentration (IC50) was 500 to 990 nM.

As for `O=C(Nc1ccc(-c2nc(N3CCOCC3)nc(N3CCOCC3)n2)cc1)Nc1cccs1`, the IC50 was 23 nM in experiment [3] and 2 nM in experiment [7].

Regarding `O=C(NCCO)Oc1ccc(-c2nc(N3CCOCC3)c3ccn(CC(F)(F)F)c3n2)cc1`, the results for the half-maximal inhibitory concentration (IC50) in experiment [3] and in experiment [7] were 1720 nM and 570 nM, respectively.

In experiment [6], `CC(C)COC(=O)c1cccc(NC(=O)c2cccc(-c3cc(C(=O)Nc4ccncc4F)ccc3CN)c2)c1` displayed a half-maximal inhibitory concentration (IC50) of 2.6 nM.

`CN1CCC(c2ccccc2CC(C)(C)Nc2nc(N3CCOCC3)nc(-n3c(C(F)F)nc4ccccc43)n2)C1` (configuration not stated) showed a half-inhibitory concentration (IC50) in experiment [1] below 100 nM.

As to `Nc1nc2ccc(-c3cncc(NS(=O)(=O)c4cccc5ccccc45)c3)cn2n1`, the results for the IC50 in experiment [3] and in experiment [5] were 7.94 nM and 126 nM, respectively.

Take `COc1cc(C#Cc2cc(NC(=O)NCCOCC3CC3)nn2C)cnc1OC`: in experiment [3], the Ki is below 100 nM.

For the compound `CO[C@H]1C[C@@H]2CC[C@@H](C)[C@@](O)(O2)C(=O)C(=O)N2CCCC[C@H]2C(=O)O[C@H]([C@H](C)C[C@@H]2CC[C@@H](O)[C@H](OC)C2)CC(=O)[C@H](C)C=C(C)[C@@H](O)[C@@H](OC)C(=O)[C@H](C)C[C@H](C)C=CC=CC=C1C`, the values for the activity in experiment [6] and in experiment [8] were 106% and 93%, respectively.

`COc1ccc2sc(C(=O)Nc3nnn[nH]3)c(Sc3cccc(Cl)c3Cl)c2c1` gave a concentration for half-maximal inhibition (IC50) in experiment [3] of 3450 nM.

In experiment [1], `Nc1ncnc2c1c(I)nn2Cc1cc2c(Cl)cccc2nc1-c1ccccc1Cl` had a 50% inhibitory concentration (IC50) of 35 nM.

The compound `Cc1nc(Nc2cc(C(=O)O)n(CCc3ccccc3)c2)nc2c1ccc(=O)n2C` showed an IC50 in experiment [3] of 148 nM.

For `CCNC(=O)Nc1ccc(-c2nc(N3CCCOCC3)c3c(ncn3C)n2)cc1`, the Ki in experiment [2] was determined as 7300 nM; in experiment [4], 6400 nM.

As to `C[C@H](Nc1ncnc(N)c1C(N)=O)c1nc2ccc(F)cc2c(C(=O)O)c1-c1ccccc1`, the Ki in experiment [5] was determined as 7.16 nM.

For the compound `CN[C@@H]1C[C@H]2O[C@@](C)([C@@H]1OC)n1c3ccccc3c3c4c(c5c6ccccc6n2c5c31)C(=O)N[C@@H]4O`, the results for the activity in experiment [6] and in experiment [8] were 22% and 92%, respectively.

In the case of `Cc1nnc(-c2c(N)ncnc2NC(C)c2nc3cccc(C)n3c(=O)c2-c2ccccc2)o1` (configuration not stated), the IC50 in experiment [2] worked out at 443 nM.

Consider `O=C(Nc1ccc(-c2nc(N3CCOCC3)nc(N3CCOCC3)n2)cc1)Nc1ccc(F)cc1F`, for which the IC50 is 528 nM in experiment [3] and 60.5 nM in experiment [7].

In experiment [3], `COc1cc2sc(C(=O)Nc3nnn[nH]3)c(SCCc3ccccc3)c2cc1OC` showed an IC50 of 522 nM.

The compound `Cc1ccccc1-c1nc2c(C)cccc2cc1COc1ncnc2[nH]cnc12` displayed a 50% inhibitory concentration (IC50) in experiment [1] of 27 nM.

Take `O=C1NC(=O)C(c2c[nH]c3ccccc23)=C1c1c[nH]c2ccccc12`: in experiment [6], the activity was 100%.
